Measured values reported in PMC8196580, “Identification of Kaurane-Type Diterpenes as Inhibitors of Leishmania Pteridine Reductase I” (Molecules, 2021).
Where two headings read alike, the source gives them in different places.

What was measured:
L. major [1] = test system: L. major; design: method as in ChEMBL; settings: ref ChEMBL, cited from earlier work
L. major [2] = experiment: ChEMBL dataset of pIC50 values against L. major used for the RF model (Table S1); format: cell-based, Leishmania major; note: call rule not given here
[3] = ChemBL structures with pIC50 values used for Random forest model construction (Table S1)
[4] = Active/Inactive class assigned to ChemBL structures for Random forest model construction (Table S1)
[5] = ChemBL structures with pIC50 values used for Random forest model construction, L. major
[6] = Active/Inactive class assigned to the ChEMBL pIC50 value for Random forest model construction, ref ChEMBL

| SMILES | pIC50 Value (L. major [1]; [3]) | Outcome (L. major [2]; [4]) | pIC50 Value (L. major [1]; [5]) | Outcome (L. major [2]; [6]) |
| --- | --- | --- | --- | --- |
| COc1ccc(/N=C/c2cn(C)c3ccccc23)cc1 [CHEMBL2071557] | 5.46 | Active | – | – |
| Cc1ccccc1/N=C/c1cn(C)c2ccccc12 [CHEMBL2071558] | 5.64 | Active | – | – |
| Cn1cc(/C=N/Cc2ccccc2)c2ccccc21 [CHEMBL2071559] | 5.54 | Active | – | – |
| Cn1cc(C2N(c3ccccc3)C(=O)C2(c2ccccc2)c2ccccc2)c2ccccc21 (stereo not shown) [CHEMBL2071560] | 5.85 | Active | – | – |
| Cc1ccc(N2C(=O)C(c3ccccc3)(c3ccccc3)C2c2cn(C)c3ccccc23)cc1 (stereo not shown) [CHEMBL2071561] | 5.88 | Active | – | – |
| CCOc1ccc(N2C(=O)C(c3ccccc3)(c3ccccc3)C2c2cn(C)c3ccccc23)cc1 (stereo not shown) [CHEMBL2071562] | 5.93 | Active | – | – |
| Cn1cc(C2N(c3ccc(Cl)cc3)C(=O)C2(c2ccccc2)c2ccccc2)c2ccccc21 (stereo not shown) [CHEMBL2071563] | 5.78 | Active | – | – |
| Cc1ccc(C2(c3ccc(C)cc3)C(=O)N(c3ccccc3)C2c2cn(C)c3ccccc23)cc1 (stereo not shown) [CHEMBL2071564] | 5.91 | Active | – | – |
| Cc1ccc(N2C(=O)C(c3ccc(C)cc3)(c3ccc(C)cc3)C2c2cn(C)c3ccccc23)cc1 (stereo not shown) [CHEMBL2071565] | 5.89 | Active | – | – |
| CCOc1ccc(N2C(=O)C(c3ccc(C)cc3)(c3ccc(C)cc3)C2c2cn(C)c3ccccc23)cc1 (stereo not shown) [CHEMBL2071566] | 5.90 | Active | – | – |
| Cc1ccc(C2(c3ccc(C)cc3)C(=O)N(c3ccc(Cl)cc3)C2c2cn(C)c3ccccc23)cc1 (stereo not shown) [CHEMBL2071567] | 5.94 | Active | – | – |
| Cc1ccc(-c2c(-c3ccccc3)nc3ccccn23)cc1 [CHEMBL2151857] | 5.40 | Active | – | – |
| COc1ccc(-c2c(-c3ccccc3)nc3ccccn23)cc1 [CHEMBL2151858] | – | – | 5.14 | Active |
| Oc1ccc(-c2c(-c3ccccc3)nc3ccccn23)cc1 [CHEMBL2151859] | – | – | 4.40 | Inactive |
| CC(=O)Oc1ccc(-c2c(-c3ccccc3)nc3ccccn23)cc1 [CHEMBL2151860] | – | – | 4.80 | Inactive |
| CC(C)(C)C(=O)Oc1ccc(-c2c(-c3ccccc3)nc3ccccn23)cc1 [CHEMBL2151861] | – | – | 5.15 | Active |
| O=[N+]([O-])c1ccc(-c2c(-c3ccccc3)nc3ccccn23)cc1 [CHEMBL2151862] | 5.31 | Active | – | – |
| Nc1ccc(-c2c(-c3ccccc3)nc3ccccn23)cc1 [CHEMBL2151863] | – | – | 4.37 | Inactive |
| N#Cc1ccc(-c2c(-c3ccccc3)nc3ccccn23)cc1 [CHEMBL2151864] | – | – | 4.00 | Inactive |
| NC(=O)c1ccc(-c2c(-c3ccccc3)nc3ccccn23)cc1 [CHEMBL2151865] | – | – | 4.57 | Inactive |
| CCOC(=O)c1ccc(-c2c(-c3ccccc3)nc3ccccn23)cc1 [CHEMBL2151866] | – | – | 5.28 | Active |
| O=C(O)c1ccc(-c2c(-c3ccccc3)nc3ccccn23)cc1 [CHEMBL2151867] | – | – | 4.00 | Inactive |

| SMILES | pIC50 Value (L. major [1]; [3]) | Outcome (L. major [2]; [4]) | pIC50 Value (L. major [1]; [5]) | Outcome (L. major [2]; [6]) |
| --- | --- | --- | --- | --- |
| Clc1cc(Cl)cc(-c2c(-c3ccccc3)nc3ccccn23)c1 [CHEMBL2151868] | – | – | 5.11 | Active |
| c1ccc(-c2nc3ccccn3c2-c2cccnc2)cc1 [CHEMBL2151869] | – | – | 4.65 | Inactive |
| c1ccc(-c2nc3ccccn3c2-c2ccncc2)cc1 [CHEMBL2151870] | – | – | 5.19 | Active |
| c1ccc(-c2nc3ccccn3c2-c2cncnc2)cc1 [CHEMBL2151871] | – | – | 4.00 | Inactive |
| c1ccc(-c2nc3ccccn3c2-c2ccsc2)cc1 [CHEMBL2151872] | – | – | 4.84 | Inactive |
| Fc1ccc(-c2nc3ccccn3c2-c2ccccc2)cc1 [CHEMBL2151873] | – | – | 4.64 | Inactive |
| O=[N+]([O-])c1cccc(-c2c(-c3ccc(F)cc3)nc3ccccn23)c1 [CHEMBL2151874] | – | – | 4.00 | Inactive |
| Fc1ccc(-c2nc3ccccn3c2-c2cccnc2)cc1 [CHEMBL2151875] | – | – | 4.42 | Inactive |
| Fc1ccccc1-c1nc2ccccn2c1-c1ccccc1 [CHEMBL2151876] | – | – | 4.41 | Inactive |
| Fc1ccccc1-c1nc2ccccn2c1-c1cccnc1 [CHEMBL2151877] | – | – | 4.46 | Inactive |
| Clc1cccc(-c2nc3ccccn3c2-c2ccccc2)c1 [CHEMBL2151878] | 5.36 | Active | – | – |
| CCOC(=O)c1ccc(-c2nc3ccccn3c2-c2ccccc2)cc1 [CHEMBL2151879] | – | – | 4.40 | Inactive |
| O=[N+]([O-])c1ccc(-c2nc3ccccn3c2-c2ccccc2)cc1 [CHEMBL2151880] | – | – | 4.52 | Inactive |
| COc1ccc(-c2nc3ccccn3c2-c2ccccc2)cc1 [CHEMBL2151881] | – | – | 4.58 | Inactive |
| COc1ccc(-c2nc3ccccn3c2-c2cccc([N+](=O)[O-])c2)cc1 [CHEMBL2151882] | – | – | 4.85 | Inactive |
| COc1ccccc1-c1nc2ccccn2c1-c1ccccc1 [CHEMBL2151883] | – | – | 4.74 | Inactive |
| Clc1cc(Cl)cc(-c2nc3ccccn3c2-c2ccccc2)c1 [CHEMBL2151989] | – | – | 4.41 | Inactive |
| Clc1cc(Cl)cc(-c2nc3ccccn3c2-c2cccnc2)c1 [CHEMBL2151990] | – | – | 4.50 | Inactive |
| C[C@@H](OP(N)(=O)N(CCCl)CCCl)c1ccc([N+](=O)[O-])cc1 (stereo partly shown) [CHEMBL2158071] | – | – | 4.52 | Inactive |
| C[C@H](OP(N)(=O)N(CCCl)CCCl)c1ccc([N+](=O)[O-])cc1 (stereo partly shown) [CHEMBL2158072] | – | – | 4.52 | Inactive |
| NP(=O)(OCc1ccc([N+](=O)[O-])cn1)N(CCCl)CCCl (stereo not shown) [CHEMBL2158073] | – | – | 5.08 | Active |
| C[n+]1ccc(-c2c3nc(c(-c4cc[n+](C)cc4)c4ccc([nH]4)c(-c4cc[n+](C)cc4)c4nc(c(-c5cc[n+](C)cc5)c5ccc2[nH]5)C=C4)C=C3)cc1.Cc1ccc(S(=O)(=O)[O-])cc1.Cc1ccc(S(=O)(=O)[O-])cc1.Cc1ccc(S(=O)(=O)[O-])cc1.Cc1ccc(S(=O)(=O)[O-])cc1 [CHEMBL2170855] | – | – | 4.68 | Inactive |

| SMILES | pIC50 Value (L. major [1]; [3]) | Outcome (L. major [2]; [4]) | pIC50 Value (L. major [1]; [5]) | Outcome (L. major [2]; [6]) |
| --- | --- | --- | --- | --- |
| COc1ccc(-n2nnc3c(N4CCCC(O)C4)nc(CC4CCCCC4)nc32)cc1 (stereo not shown) [CHEMBL2171512] | – | – | 5.07 | Active |
| CC(=O)N1c2ccccc2Oc2ccccc21 [CHEMBL2180182] | – | – | 4.00 | Inactive |
| Cc1ccc2cc(C3CC(c4ccc(Br)s4)=NN3)c(Cl)nc2c1 (stereo not shown) [CHEMBL2235715] | 5.64 | Active | – | – |
| Cc1ccc2cc(C3CC(c4ccc(I)s4)=NN3)c(Cl)nc2c1 (stereo not shown) [CHEMBL2235716] | 5.71 | Active | – | – |
| Cc1cccc2cc(C3CC(c4ccsc4)=NN3)c(Cl)nc12 (stereo not shown) [CHEMBL2235717] | 5.69 | Active | – | – |
| Cc1ccsc1C1=NNC(c2cc3cccc(C)c3nc2Cl)C1 (stereo not shown) [CHEMBL2235718] | 5.64 | Active | – | – |
| Cc1csc(C2=NNC(c3cc4cccc(C)c4nc3Cl)C2)c1 (stereo not shown) [CHEMBL2235719] | 5.66 | Active | – | – |
| Cc1ccc(C2=NNC(c3cc4cccc(C)c4nc3Cl)C2)s1 (stereo not shown) [CHEMBL2235720] | 5.58 | Active | – | – |
| Cc1cc(C2=NNC(c3cc4cccc(C)c4nc3Cl)C2)c(C)s1 (stereo not shown) [CHEMBL2235721] | 5.58 | Active | – | – |
| Cc1cccc2cc(C3CC(c4sccc4Cl)=NN3)c(Cl)nc12 (stereo not shown) [CHEMBL2236129] | 5.63 | Active | – | – |
| Cc1cccc2cc(C3CC(c4ccc(Cl)s4)=NN3)c(Cl)nc12 (stereo not shown) [CHEMBL2236130] | 5.68 | Active | – | – |
| Cc1cccc2cc(C3CC(c4cc(Cl)sc4Cl)=NN3)c(Cl)nc12 (stereo not shown) [CHEMBL2236131] | 5.70 | Active | – | – |
| Cc1cccc2cc(C3CC(c4sccc4Br)=NN3)c(Cl)nc12 (stereo not shown) [CHEMBL2236132] | 5.64 | Active | – | – |
| Cc1cccc2cc(C3CC(c4ccc(Br)s4)=NN3)c(Cl)nc12 (stereo not shown) [CHEMBL2236133] | 5.64 | Active | – | – |
| Cc1cccc2cc(C3CC(c4ccc(I)s4)=NN3)c(Cl)nc12 (stereo not shown) [CHEMBL2236134] | 5.77 | Active | – | – |
| Cc1ccc2cc(C3CC(c4ccsc4)=NN3)c(Cl)nc2c1 (stereo not shown) [CHEMBL2236135] | 5.54 | Active | – | – |
| Cc1ccc2cc(C3CC(c4sccc4C)=NN3)c(Cl)nc2c1 (stereo not shown) [CHEMBL2236136] | 5.65 | Active | – | – |
| Cc1csc(C2=NNC(c3cc4ccc(C)cc4nc3Cl)C2)c1 (stereo not shown) [CHEMBL2236137] | 5.59 | Active | – | – |
| Cc1ccc2cc(C3CC(c4ccc(C)s4)=NN3)c(Cl)nc2c1 (stereo not shown) [CHEMBL2236138] | 5.58 | Active | – | – |
| Cc1ccc2cc(C3CC(c4cc(C)sc4C)=NN3)c(Cl)nc2c1 (stereo not shown) [CHEMBL2236139] | 5.67 | Active | – | – |
| Cc1ccc2cc(C3CC(c4sccc4Cl)=NN3)c(Cl)nc2c1 (stereo not shown) [CHEMBL2236140] | 5.67 | Active | – | – |
